Earlier results in patent US20260207703A1 (priority 2023, published 2026).

Details: in vivo

Row | SMILES | half-life
1 | C=CCN1CC[C@]23c4c5ccc(O)c4O[C@H]2C(=O)CC[C@@]3(O)[C@H]1C5 [Naloxone] | ~ 1 hr.
2 | C=C1CC[C@@]2(O)[C@H]3Cc4ccc(O)c5c4[C@@]2(CCN3CC2CC2)[C@H]1O5 [nalmefene, 17-cyclopropylmethyl-4,5α-epoxy-6-methylenemorphinan-3,14-diol] | 8 to 11 h
